In patent US5892063A (Hauser, Inc., priority 1997, dated 1999):
Read-outs that look alike come from different tables or passages of the source.

How the values were obtained:
[1] = system: SR; assay: SRB growth screen, leukemia SR; conditions: Homo sapiens, 48 h; for CC50: read-out: Log10 LC50 (converted)
[2] = system: 786-0; assay: SRB growth screen, renal cancer 786-0; conditions: Homo sapiens, 786-0, 48 h; for CC50: read-out: Log10 LC50 (converted); for IC (TGI): read-out: Log10 TGI
[3] = system: OVCAR-8; assay: SRB growth screen, ovarian cancer OVCAR-8; conditions: Homo sapiens, OVCAR-8, 48 h; for CC50: read-out: Log10 LC50 (converted)
[4] = system: NCI-H460; conditions: Homo sapiens, NCI-H460, 48 h; for CC50: read-out: Log10 LC50 (converted)
[5] = system: RXF-393; assay: SRB growth screen, renal cancer RXF-393; conditions: Homo sapiens, RXF 393, 48 h; for CC50: read-out: Log10 LC50 (converted); for IC (TGI): read-out: Log10 TGI
[6] = system: MDA-MB-435; assay: SRB growth screen, breast cancer MDA-MB-435; format: cell-based
[7] = system: SN12C; assay: SRB growth screen, renal cancer SN12C; conditions: Homo sapiens, 48 h; for CC50: read-out: Log10 LC50 (converted); for IC (TGI): read-out: Log10 TGI
[8] = system: NCI-H522; conditions: Homo sapiens, NCI-H522, 48 h; for GI50: read-out: Log10 GI50 (converted); for IC (TGI): read-out: Log10 TGI
[9] = system: HCT-116; assay: SRB growth screen, colon cancer HCT-116; conditions: Homo sapiens, HCT-116, 48 h; for GI50: read-out: Log10 GI50 (converted); for CC50: read-out: Log10 LC50 (converted)
[10] = system: MCF7; assay: SRB growth screen, breast cancer MCF7; conditions: Homo sapiens, MCF7, 48 h; for CC50: read-out: Log10 LC50 (converted)
[11] = system: SNB-75; assay: SRB growth screen, CNS cancer SNB-75; conditions: Homo sapiens, SNB-75, 48 h
[12] = system: UO-31; assay: SRB growth screen, renal cancer UO-31; conditions: Homo sapiens, UO-31, 48 h; for CC50: read-out: Log10 LC50 (converted); for IC (TGI): read-out: Log10 TGI
[13] = system: TK-10; assay: SRB growth screen, renal cancer TK-10; conditions: Homo sapiens, TK-10, 48 h; for CC50: read-out: Log10 LC50 (converted); for IC (TGI): read-out: Log10 TGI
[14] = system: HOP-62; conditions: Homo sapiens, HOP-62, 48 h; for CC50: read-out: Log10 LC50 (converted)
[15] = system: HL-60(TB); assay: SRB growth screen, leukemia HL-60(TB); conditions: Homo sapiens, HL-60, 48 h; for CC50: read-out: Log10 LC50 (converted); for IC (TGI): read-out: Log10 TGI
[16] = system: MDA-N; assay: SRB growth screen, breast cancer MDA-N; conditions: Homo sapiens, 48 h; for GI50: read-out: Log10 GI50 (converted)
[17] = system: HCC-2998; assay: SRB growth screen, colon cancer HCC-2998; conditions: Homo sapiens, HCC 2998, 48 h; for CC50: read-out: Log10 LC50 (converted); for IC (TGI): read-out: Log10 TGI
[18] = system: OVCAR-3; assay: SRB growth screen, ovarian cancer OVCAR-3; conditions: Homo sapiens, OVCAR-3, 48 h; for CC50: read-out: Log10 LC50 (converted); for IC (TGI): read-out: Log10 TGI
[19] = system: K-562; assay: SRB growth screen, leukemia K-562; conditions: Homo sapiens, K562, 48 h; for CC50: read-out: Log10 LC50 (converted); for IC (TGI): read-out: Log10 TGI
[20] = system: HT29; assay: SRB growth screen, colon cancer HT29; conditions: Homo sapiens, HT-29, 48 h; for GI50: read-out: Log10 GI50 (converted); for CC50: read-out: Log10 LC50 (converted)
[21] = system: MALME-3M; assay: SRB growth screen, melanoma MALME-3M; conditions: Homo sapiens, 48 h; for CC50: read-out: Log10 LC50 (converted); for IC (TGI): read-out: Log10 TGI
[22] = system: MDA-MB-231/ATCC; assay: SRB growth screen, breast cancer MDA-MB-231/ATCC; conditions: Homo sapiens, MDA-MB-231, 48 h; for CC50: read-out: Log10 LC50 (converted)
[23] = system: MOLT-4; assay: SRB growth screen, leukemia MOLT-4; conditions: Homo sapiens, MOLT-4, 48 h; for CC50: read-out: Log10 LC50 (converted); for IC (TGI): read-out: Log10 TGI
[24] = system: OVCAR-4; assay: SRB growth screen, ovarian cancer OVCAR-4; conditions: Homo sapiens, OVCAR-4, 48 h; for GI50: read-out: Log10 GI50 (converted); for CC50: read-out: Log10 LC50 (converted); for IC (TGI): read-out: Log10 TGI
[25] = system: HCT-15; assay: SRB growth screen, colon cancer HCT-15; conditions: Homo sapiens, HCT-15, 48 h; for GI50: read-out: Log10 GI50 (converted); for CC50: read-out: Log10 LC50 (converted); for IC (TGI): read-out: Log10 TGI
[26] = read-out: Log10 GI50 (converted)
[27] = read-out: Log10 LC50 (converted)

Compound: CC(=O)O[C@H]1C(=O)[C@@]2(C)[C@H]([C@H](OC(=O)c3ccccc3)[C@]3(O)C[C@H](OC(=O)[C@H](O)[C@@H](NC(=O)C4(C)OC4C)c4ccccc4)C(C)=C1C3(C)C)[C@]1(OC(C)=O)CO[C@@H]1C[C@@H]2O (some centres unmarked) [Ceph-epoxide, cephalomannine epoxide]
- GI50 [1, 26]: < 0.01 µM
- CC50 [1]: > 100 µM
- CC50 [2]: > 100 µM
- IC (TGI) [2]: > 100 µM
- CC50 [3]: > 100 µM
- IC (TGI) ([3]; read-out: Log10 TGI): > 100 µM
- GI50 [4, 26]: < 0.01 µM
- CC50 [4]: > 100 µM
- IC (TGI) ([4]; read-out: Log10 TGI): > 100 µM
- GI50 [5, 26]: 0.214 µM
- CC50 [5]: > 100 µM
- IC (TGI) [5]: > 100 µM
- GI50 ([6]; Homo sapiens, MDA-MB-435, 48 h; read-out: Log10 GI50 (converted)): < 10 nM
- IC (TGI) ([6]; Homo sapiens, MDA-MB-435, 48 h; read-out: Log10 TGI): < 0.01 µM
- GI50 [7, 26]: < 0.01 µM
- CC50 [7]: > 100 µM
- IC (TGI) [7]: > 100 µM
- GI50 [8]: < 10 nM
- IC (TGI) [8]: 33.1 nM
- GI50 [9]: < 10 nM
- CC50 [9]: > 100 µM
- GI50 [10, 26]: < 0.01 µM
- CC50 [10]: > 100 µM
- IC (TGI) ([10]; read-out: Log10 TGI): > 100 µM
- GI50 [11, 26]: < 0.01 µM
- CC50 [11, 27]: > 100 µM
- GI50 [12, 26]: 2 µM
- CC50 [12]: > 100 µM
- IC (TGI) [12]: > 100 µM
- GI50 [13, 26]: 0.0646 µM
- CC50 [13]: > 100 µM
- IC (TGI) [13]: > 100 µM
- GI50 [14, 26]: 0.0245 µM
- CC50 [14]: > 100 µM
- GI50 [15, 26]: < 0.01 µM
- CC50 [15]: > 100 µM
- IC (TGI) [15]: < 0.01 µM
- GI50 [16]: < 10 nM
- CC50 [16, 27]: < 0.01 µM
- IC (TGI) ([16]; read-out: Log10 TGI): < 0.01 µM
- GI50 [17, 26]: < 0.01 µM
- CC50 [17]: > 100 µM
- IC (TGI) [17]: 0.0457 µM
- GI50 [18, 26]: < 0.01 µM
- CC50 [18]: > 100 µM
- IC (TGI) [18]: 0.0182 µM
- GI50 [19, 26]: < 0.01 µM
- CC50 [19]: > 100 µM
- IC (TGI) [19]: > 100 µM
- GI50 [20]: < 10 nM
- CC50 [20]: > 100 µM
- IC (TGI) ([20]; read-out: Log10 TGI): 0.115 µM
- CC50 [21]: > 100 µM
- IC (TGI) [21]: > 100 µM
- GI50 [22, 26]: 0.0182 µM
- CC50 [22]: > 100 µM
- GI50 [23, 26]: < 0.01 µM
- CC50 [23]: > 100 µM
- IC (TGI) [23]: > 100 µM
- GI50 [24]: 3.89 µM
- CC50 [24]: > 100 µM
- IC (TGI) [24]: > 100 µM
- GI50 [25]: 0.603 µM
- CC50 [25]: > 100 µM
- IC (TGI) [25]: > 100 µM

Compound: CC(=O)O[C@H]1C(=O)[C@@]2(C)[C@H]([C@H](OC(=O)c3ccccc3)[C@]3(O)C[C@H](OC(=O)[C@H](O)[C@@H](NC(=O)c4ccccc4)c4ccccc4)C(C)=C1C3(C)C)[C@]1(OC(C)=O)CO[C@@H]1C[C@@H]2O [Paclitaxel, paclitaxel, reference compound]
- CC50 [1]: > 100 µM
- IC (TGI) ([1]; read-out: Log10 TGI): > 100 µM
- CC50 [2]: > 100 µM
- IC (TGI) [2]: > 100 µM
- GI50 [3, 26]: 0.0178 nM
- CC50 [3]: > 100 µM
- CC50 [4]: > 100 µM
- CC50 [5]: 35.5 µM
- IC (TGI) [5]: 12.6 µM
- GI50 ([6]; Homo sapiens, MDA-MB-435, 48 h, read-out: Log10 GI50 (converted)): < 0.0001 nM
- CC50 [7]: > 100 µM
- IC (TGI) [7]: 91.2 µM
- GI50 [8]: < 0.0001 nM
- CC50 [8, 27]: > 100 µM
- IC (TGI) [8]: 0.00631 nM
- GI50 [9]: < 0.0001 nM
- CC50 [9]: > 100 µM
- IC (TGI) ([9]; read-out: Log10 TGI): 15.1 µM
- CC50 [10]: > 100 µM
- CC50 [12]: > 100 µM
- IC (TGI) [12]: 51.3 µM
- CC50 [13]: > 100 µM
- IC (TGI) [13]: > 100 µM
- CC50 [14]: 79.4 µM
- IC (TGI) ([14]; read-out: Log10 TGI): 15.8 µM
- CC50 [15]: > 100 µM
- IC (TGI) [15]: > 29.5 µM
- GI50 [16]: < 0.0001 nM
- CC50 [17]: 55 µM
- IC (TGI) [17]: 17 µM
- CC50 [18]: > 100 µM
- IC (TGI) [18]: 28.2 µM
- CC50 [19]: > 100 µM
- IC (TGI) [19]: > 100 µM
- GI50 [20]: < 0.0001 nM
- CC50 [20]: 40.7 µM
- CC50 [21]: 77.6 µM
- IC (TGI) [21]: 34.7 µM
- CC50 [22]: 51.3 µM
- IC (TGI) ([22]; read-out: Log10 TGI): 14.5 µM
- CC50 [23]: > 100 µM
- IC (TGI) [23]: > 100 µM
- GI50 [24]: 10 µM
- CC50 [24]: > 100 µM
- IC (TGI) [24]: 64.6 µM
- GI50 [25]: 0.427 µM
- CC50 [25]: > 100 µM
- IC (TGI) [25]: > 100 µM
